Measured values published in ChEMBL document CHEMBL1135488, “Prediction of volume of distribution values in humans for neutral and basic drugs using physicochemical measurements and plasma protein binding data” (J Med Chem, 2002).

Assays:
[1] = pH 7.4
in vitro [2] = settings: human, plasma
[3] = Ionisation constant (pKa); type: physicochemical
clinical = settings: human, in vivo, iv
in vitro [4] = assay: in vitro

SMILES | chromatographic logD (physchem) | Fraction ionised [1] | fraction unbound (in vitro [2]) | pKa [3] | Vd (clinical) | fraction unbound (in vitro [4]; tissues) | fraction unbound (in vitro [4])
CCOC(=O)C1=C(C)NC(C)=C(C(=O)OC)C1c1cccc(Cl)c1Cl (stereo not given) [FELODIPINE] | 4.52 | 0 | – | – | – | – | –
CN/C(=C\[N+](=O)[O-])NCCSCc1csc(CN(C)C)n1 [NIZATIDINE] | – | 0.134 | 0.78 | 6.59 | 1.2 L/kg | 0.0289 | –
O=c1n(CCCN2CCN(c3cccc(Cl)c3)CC2)nc2ccccn12 [TRAZODONE] | – | 0.197 | 0.07 | 6.79 | 1 L/kg | 0.03 | –
CC(=O)O[C@H]1C(=O)[C@@]2(C)[C@H]([C@H](OC(=O)c3ccccc3)[C@]3(O)C[C@H](OC(=O)[C@H](O)[C@@H](NC(=O)c4ccccc4)c4ccccc4)C(C)=C1C3(C)C)[C@]1(OC(C)=O)CO[C@@H]1C[C@@H]2O [PACLITAXEL] | 4.45 | 0 | 0.03 | – | 2.4 L/kg | – | 0.005
CCC(C)n1ncn(-c2ccc(N3CCN(c4ccc(OCC5COC(Cn6cncn6)(c6ccc(Cl)cc6Cl)O5)cc4)CC3)cc2)c1=O (stereo not given) [ITRACONAZOLE] | 5.79 | 0 | 0.028 | Not Active | 3.9 L/kg | – | –
CC(=O)Nc1ccc(O)cc1 [ACETAMINOPHEN] | 0.38 | 0 | 1 | Not Active | 0.95 L/kg | 0.503 | –
CN1C[C@H](C(=O)N[C@]2(C)O[C@@]3(O)[C@@H]4CCCN4C(=O)[C@H](Cc4ccccc4)N3C2=O)C=C2c3cccc4[nH]cc(c34)C[C@H]21 [ERGOTAMINE] | 4.3 | 0.074 | 0.02 | – | 2.7 L/kg | 0.003 | –
CN/C(=N/CCSCc1nc[nH]c1C)NC#N [CIMETIDINE] | – | 0.271 | 0.81 | 6.97 | 1 L/kg | – | 0.374
CNS(=O)(=O)Cc1ccc2[nH]cc(CCN(C)C)c2c1 | – | 0.992 | […] | 9.5 | 0.65 L/kg | 0.661 | –
CCc1nn(CCCN2CCN(c3cccc(Cl)c3)CC2)c(=O)n1CCOc1ccccc1 [NEFAZODONE] | 4.83 | 0.197 | – | 6.79 | 0.51 L/kg | 0.008 | –
Cc1ccc(O)c([C@H](CCN(C(C)C)C(C)C)c2ccccc2)c1 [TOLTERODINE] | 1.04 | 0.997 | – | 9.87 | 1.3 L/kg | 0.012 | –
CCCCCc1cc(O)c2c(c1)OC(C)(C)[C@@H]1CCC(C)=C[C@@H]21 [DRONABINOL] | 6.8 | 0 | 0.03 | – | 9.8 L/kg | 0.001 | –
CN1CCC[C@H]1c1cccnc1 [NICOTINE] | 0.23 | 0.834 | – | – | 2.6 L/kg | – | 0.15
Oc1ncnc2[nH]ncc12 [ALLOPURINOL] | – | 0 | 0.95 | Not Active | 0.6 L/kg | 0.881 | –
Cc1ncc([N+](=O)[O-])n1CCO [METRONIDAZOLE] | – | 0 | 0.89 | Not Active | 0.74 L/kg | 0.609 | –
CN1CCCC(n2nc(Cc3ccc(Cl)cc3)c3ccccc3c2=O)CC1 (stereo not given) [AZELASTINE] | 1.93 | 0.993 | 0.17 | 9.54 | 15 L/kg | 0.004 | –
COc1cc2c(c(OC)c1OC)-c1ccc(OC)c(=O)cc1[C@@H](NC(C)=O)CC2 [COLCHICINE] | 0.9 | 0 | – | – | 4.2 L/kg | – | –
O=C1CN=C(c2ccccn2)c2cc(Br)ccc2N1 [BROMAZEPAM] | – | 0 | 0.3 | Not Active | 0.91 L/kg | 0.146 | –
C#CCCCC(=O)c1cc(C(C)(C)C)c(O)c(C(C)(C)C)c1 [TEBUFELONE] | 5.56 | 0 | 0.00067 | – | 31 L/kg | 8e-06 | –
CCN(CC)CCCC(C)Nc1c2ccc(Cl)cc2nc2ccc(OC)cc12 (stereo not given) [QUINACRINE] | 1.1 | – | 0.103 | 10.2 | 223 L/kg | – | –
